Results from patent US9708314B2, “Heterocyclic amide compound” (NISSAN CHEMICAL INDUSTRIES, LTD., priority 2013, dated 2017).

Experiments:
Assay type in all cases: in vivo
Monochoria vaginalis = assay: Test Example 1: herbicidal activity, application before weed generation in submerged conditions; conditions: Application herbicide amount 320 g/ha; Seventeenth Table
Text: (§1) [Test Example 1] Herbicidal Activity Test by Application Before Weed Generation in Submerged Conditions After alluvial soil was placed into 1/10000 are of Wagner pot, water was poured and mixed to form a submerged condition having a water depth of 4 cm. Seeds of Echinochloa oryzacola Vasing., Scirpus juncoides, and Monochoria vaginalis were sowed in a mixed manner in the above pot and thereafter 2.5 leaf stage Oryza sativa seedling was transplanted. On the day of sowing seeds, the emulsion agent containing the compound of the present invention prepared in accordance with Formulation Example 2 was diluted with water so as to be a predetermined herbicide amount and the diluted compound was applied to the surface of the water. The pot was placed in a greenhouse of 25° C. to 30° C. to grow plant. Three weeks after the herbicide application, effects on each plant were investigated in accordance with the following criteria. Criteria 5 Herbicidal ratio of 90% or more (almost completely withered) 4 Herbicidal ratio of 70% or more and less than 90% 3 Herbicidal ratio of 40% or more and less than 70% 2 Herbicidal ratio of 20% or more and less than 40% 1 Herbicidal ratio of 5% or more and less than 20% 0 Herbicidal ratio of 5% or less (almost no effect) A: Echinochloa oryzicola Vasing., B: Scirpus juncoides, C: Monochoria vaginalis, D: Leptochloa chinensis, E: Cyperus difformis, F: Digitaria ciliaris, G: Setaria viridis, H: Echinochloa crus-galli var. crus-galli, I: Avena fatua, J: Alopecurus myosuroides, K: Lolium multiflorum Lam., L: Apera spica-venti., M: Abutilon theophrasti, N: Amaranthus retroflexus, O: Chenopodium album, P: Stellaria media, Q: Galium spurium, R: Veronica persica, a: transplanted Oryza sativa, b: directly sowed Oryza sativa, c: Zea mays, d: Glycine max, e: Triticum aestivum, f: Beta vulgaris ssp. vulgaris, and g: Brassica campestris L. The application herbicide amount (g/ha) means an amount that a concentration is adjusted so that, when an application amount is converted into per hectare (1 ha), the herbicide is applied by the number of grams (g) of the described value.

Scirpus juncoides = assay: as above; conditions: Application herbicide amount 320 g/ha; Seventeenth Table
Text: as §1

Glycine max = assay: Test Example 4: effect on crop by application to foliage (diluvial soil, plastic box); conditions: application to foliage, application herbicide amount 320 g/ha
Procedure, shortened: (§2)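 Seeds sown in sterilized diluvial soil, covered ~1.5 cm, grown 14 days in greenhouse at 25° C. to 30° C. Emulsion formulation diluted in water to set rate (g/ha) and sprayed onto stems and leaves. Effect scored visually 3 weeks later on 0–5 scale (5 = ≥90% herbicidal ratio, 0 = ≤5%).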

Zea mays = assay: as above; conditions: application to foliage, application herbicide amount 320 g/ha
Procedure, shortened: as §2

[1] = system: Beta vulgaris ssp. vulgaris; assay: as above; conditions: application to foliage, application herbicide amount 320 g/ha
Procedure, shortened: as §2

[2] = system: directly sowed Oryza sativa; assay: as above; conditions: application to foliage, application herbicide amount 320 g/ha
Procedure, shortened: as §2

Triticum aestivum = assay: as above; conditions: application to foliage, application herbicide amount 320 g/ha
Procedure, shortened: as §2

Brassica campestris L. = assay: as above; conditions: application to foliage, application herbicide amount 320 g/ha
Procedure, shortened: as §2

Alopecurus myosuroides = assay: Test Example 4: herbicidal effect by application to foliage (diluvial soil, plastic box); conditions: application to foliage, application herbicide amount 320 g/ha
Text: (§3) 5 Herbicidal ratio of 90% or more (almost completely withered) 4 Herbicidal ratio of 70% or more and less than 90% 3 Herbicidal ratio of 40% or more and less than 70% 2 Herbicidal ratio of 20% or more and less than 40% 1 Herbicidal ratio of 5% or more and less than 20% 0 Herbicidal ratio of 5% or less (almost no effect) [Test Example 4] Herbicidal Effect Test by Application to Foliage Sterilized diluvial soil was placed in a plastic box having a length of 21 cm, a width of 13 cm, and a depth of 7 cm. Each of the seeds of Digitaria ciliaris, Setaria viridis, Echinochloa crus-galli var. crus-galli, Avena fatua, Alopecurus myosuroides, Lolium multiflorum Lam., Apera spica-venti., Abutilon theophrasti, Amaranthus retroflexus, Chenopodium album, Stellaria media, Galium spurium, Veronica persica, Zea mays, Glycine max, Oryza sativa, Triticum aestivum, Beta vulgaris ssp. vulgaris, and Brassica campestris L. was sowed in a spot-like manner and was covered with the soil of about 1.5 cm thick. Thereafter, the plants were grown in the greenhouse of 25° C. to 30° C. After the plants were grown for 14 days, the emulsion agent containing the compound of the present invention prepared in accordance with Formulation Example 2 was diluted with water so as to be a predetermined herbicide amount and the diluted compound was uniformly applied to a stem and leaf part with a small-size spray. Three weeks after the herbicide application, effects on each plant were investigated in accordance with the criteria of Test Example 1. A: Echinochloa oryzicola Vasing., B: Scirpus juncoides, C: Monochoria vaginalis, D: Leptochloa chinensis, E: Cyperus difformis, F: Digitaria ciliaris, G: Setaria viridis, H: Echinochloa crus-galli var. crus-galli, I: Avena fatua, J: Alopecurus myosuroides, K: Lolium multiflorum Lam., L: Apera spica-venti., M: Abutilon theophrasti, N: Amaranthus retroflexus, O: Chenopodium album, P: Stellaria media, Q: Galium spurium, R: Veronica persica, a: transplanted Oryza sativa, b: directly sowed Oryza sativa, c: Zea mays, d: Glycine max, e: Triticum aestivum, f: Beta vulgaris ssp. vulgaris, and g: Brassica campestris L. The application herbicide amount (g/ha) means an amount that a concentration is adjusted so that, when an application amount is converted into per hectare (1 ha), the herbicide is applied by the number of grams (g) of the described value.

Digitaria ciliaris = assay: as above; conditions: application to foliage, application herbicide amount 320 g/ha
Text: as §3

Chenopodium album = assay: as above; conditions: application to foliage, application herbicide amount 320 g/ha
Text: as §3

Apera spica-venti. = assay: as above; conditions: application to foliage, application herbicide amount 320 g/ha
Text: as §3

Veronica persica = assay: as above; conditions: application to foliage, application herbicide amount 320 g/ha
Text: as §3

Amaranthus retroflexus = assay: as above; conditions: application to foliage, application herbicide amount 320 g/ha
Text: as §3

Setaria viridis = assay: as above; conditions: application to foliage, application herbicide amount 320 g/ha
Text: as §3

[3] = system: Echinochloa crus-galli var. crus-galli; assay: as above; conditions: application to foliage, application herbicide amount 320 g/ha
Text: as §3

Avena fatua = assay: as above; conditions: application to foliage, application herbicide amount 320 g/ha
Text: as §3

Galium spurium = assay: as above; conditions: application to foliage, application herbicide amount 320 g/ha
Text: as §3

Lolium multiflorum Lam. = assay: as above; conditions: application to foliage, application herbicide amount 320 g/ha
Text: as §3

Abutilon theophrasti = assay: as above; conditions: application to foliage, application herbicide amount 320 g/ha
Text: as §3

Stellaria media = assay: as above; conditions: application to foliage, application herbicide amount 320 g/ha
Text: as §3

[4] = system: transplanted Oryza sativa; assay: Test Example 1: effect on crop, application before weed generation in submerged conditions; conditions: Application herbicide amount 320 g/ha; Seventeenth Table
Text: as §1

For `CC#Cc1nnc2c(C(=O)Nc3nnc(C)o3)ccc(C(F)(F)F)n12` [1-161], the “C: Monochoria vaginalis (herbicidal effect grade)” value (Monochoria vaginalis) was 0 (Herbicidal ratio of 5% or less (almost no effect)), the “B: Scirpus juncoides (herbicidal effect grade)” value (Scirpus juncoides) was 2 (Herbicidal ratio of 20% or more and less than 40%) and the “d: effect on crop, Glycine max” value (Glycine max) was 1 (Herbicidal ratio of 5% or more and less than 20%). The “c: effect on crop, Zea mays” value (Zea mays) was 0 (Herbicidal ratio of 5% or less (almost no effect)), the “f: effect on crop, Beta vulgaris ssp. vulgaris” value [1] was 1 (Herbicidal ratio of 5% or more and less than 20%) and the “b: effect on crop, directly sowed Oryza sativa” value [2] was 0 (Herbicidal ratio of 5% or less (almost no effect)). For the same molecule, the “e: effect on crop, Triticum aestivum” value (Triticum aestivum) was 0 (Herbicidal ratio of 5% or less (almost no effect)), the “g: effect on crop, Brassica campestris L.” value (Brassica campestris L.) was 0 (Herbicidal ratio of 5% or less (almost no effect)) and the “J: herbicidal effect on Alopecurus myosuroides” value (Alopecurus myosuroides) was 0 (Herbicidal ratio of 5% or less (almost no effect)). For the same molecule, the “F: herbicidal effect on Digitaria ciliaris” value (Digitaria ciliaris) was 3 (Herbicidal ratio of 40% or more and less than 70%), the “O: herbicidal effect on Chenopodium album” value (Chenopodium album) was 4 (Herbicidal ratio of 70% or more and less than 90%) and the “L: herbicidal effect on Apera spica-venti.” value (Apera spica-venti.) was 0 (Herbicidal ratio of 5% or less (almost no effect)). For the same molecule, the “R: herbicidal effect on Veronica persica” value (Veronica persica) was 1 (Herbicidal ratio of 5% or more and less than 20%), the “N: herbicidal effect on Amaranthus retroflexus” value (Amaranthus retroflexus) was 0 (Herbicidal ratio of 5% or less (almost no effect)) and the “G: herbicidal effect on Setaria viridis” value (Setaria viridis) was 0 (Herbicidal ratio of 5% or less (almost no effect)). The “H: herbicidal effect on Echinochloa crus-galli var. crus-galli” value [3] was 3 (Herbicidal ratio of 40% or more and less than 70%), the “I: herbicidal effect on Avena fatua” value (Avena fatua) was 0 (Herbicidal ratio of 5% or less (almost no effect)) and the “Q: herbicidal effect on Galium spurium” value (Galium spurium) was 0 (Herbicidal ratio of 5% or less (almost no effect)). For the same molecule, the “K: herbicidal effect on Lolium multiflorum Lam.” value (Lolium multiflorum Lam.) was 0 (Herbicidal ratio of 5% or less (almost no effect)), the “M: herbicidal effect on Abutilon theophrasti” value (Abutilon theophrasti) was 1 (Herbicidal ratio of 5% or more and less than 20%) and the “P: herbicidal effect on Stellaria media” value (Stellaria media) was 0 (Herbicidal ratio of 5% or less (almost no effect)). The “a: transplanted Oryza sativa (effect on crop grade)” value [4] was 0 (Herbicidal ratio of 5% or less (almost no effect)).
